Test results from US8993752B2, “Neprilysin inhibitors” (Theravance Biopharma R&D IP, LLC, priority 2011, dated 2015).

Biological target: T1, human NEP (Homo sapiens, UniProt P08473)
T1 construct: purchased R&D Systems, Minneapolis, Minn; 1182-ZN
Assay: In vitro enzyme inhibition assay at human NEP (fluorogenic peptide substrate)
Type: biochemical
Details: recombinant human NEP; substrate Mca-D-Arg-Arg-Leu-Dap-(Dnp)-OH 10 μM; 37° C.; values given as ranges; read-out: pKi values at human NEP (converted)
How it was run: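 Recombinant human NEP pre-incubated 30 min at 37 °C with compound (10 μM to 20 pM), then 10 μM Mca-D-Arg-Arg-Leu-Dap-(Dnp)-OH in 50 mM HEPES pH 7.5, 100 mM NaCl, 0.01% Tween-20, 10 μM ZnSO4. Stopped after 20 min with acetic acid, fluorescence read at 320/405 nm; Ki from nonlinear fit, reported as pKi.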

T1 sequence (P08473 whole entry): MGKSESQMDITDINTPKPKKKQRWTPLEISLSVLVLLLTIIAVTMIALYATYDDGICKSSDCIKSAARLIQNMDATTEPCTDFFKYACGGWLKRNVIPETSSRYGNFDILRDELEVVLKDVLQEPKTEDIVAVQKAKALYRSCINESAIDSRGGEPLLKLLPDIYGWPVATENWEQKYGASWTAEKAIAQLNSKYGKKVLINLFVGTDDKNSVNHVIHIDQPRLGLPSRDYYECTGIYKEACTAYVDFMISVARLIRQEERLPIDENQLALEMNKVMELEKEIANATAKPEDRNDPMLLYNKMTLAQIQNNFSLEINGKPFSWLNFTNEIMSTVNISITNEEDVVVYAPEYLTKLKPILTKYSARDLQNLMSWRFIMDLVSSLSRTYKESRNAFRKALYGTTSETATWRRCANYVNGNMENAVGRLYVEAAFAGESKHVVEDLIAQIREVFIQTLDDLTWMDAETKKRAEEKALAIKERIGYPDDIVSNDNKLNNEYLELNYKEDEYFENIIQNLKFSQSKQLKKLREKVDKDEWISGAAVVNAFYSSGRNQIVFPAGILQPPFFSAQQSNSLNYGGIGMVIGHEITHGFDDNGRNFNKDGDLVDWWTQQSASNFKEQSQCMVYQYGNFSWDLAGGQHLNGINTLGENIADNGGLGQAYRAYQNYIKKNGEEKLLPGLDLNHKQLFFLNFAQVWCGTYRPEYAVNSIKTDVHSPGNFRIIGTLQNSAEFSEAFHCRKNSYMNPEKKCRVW

**Q.** For `COc1ccc(Cn2nc(C(=O)N[C@H](Cc3ccccc3C(F)(F)F)[C@@H](O)C(=O)O)cc2C(=O)O)cc1` [Example 5, 5-[(1R,2R)-2-Carboxy-2-hydroxy-1-(2-trifluoromethylbenzyl)-ethylcarbamoyl]-2-(4-methoxybenzyl)-2H-pyrazole-3-carboxylic Acid], which Ki is on record?
**A.** 1.26 to 10 nM

**Q.** Which Ki does the source give for `COc1c(F)c(F)c(Cn2nc(C(C)=O)cc2C(=O)N[C@H](Cc2ccccc2Cl)[C@@H](O)C(=O)O)c(F)c1F` [Example 3-6, (2R,3R)-3-{[5-Acetyl-2-(2,3,5,6-tetrafluoro-4-methoxy-benzyl)-2H-pyrazole-3-carbonyl]-amino}-4-(2-chloro-phenyl)-2-hydroxy-butyric acid] here?
**A.** ≤ 1 nM

**Q.** For `O=C(N[C@H](Cc1ccccc1Cl)[C@@H](O)C(=O)O)c1cc(-c2ccc(F)cc2)n[nH]1` [Example 3-3, (2R,3R)-4-(2-Chloro-phenyl)-3-{[5-(4-fluoro-phenyl)-2H-pyrazole-3-carbonyl]-amino}-2-hydroxy-butyric acid], which Ki is on record?
**A.** 12.6 to 100 nM

**Q.** For `O=C(O)C[C@@H](Cc1ccccc1Cl)NC(=O)c1cc(C(=O)O)n(Cc2cccc(Cl)c2)n1` [Example 10, 5-[(R)-2-Carboxy-1-(2-chlorobenzyl)-ethylcarbamoyl]-2-(3-chlorobenzyl)-2H-pyrazole-3-carboxylic Acid], which Ki is on record?
**A.** 1.26 to 10 nM

**Q.** How did the Ki turn out when `O=C(N[C@H](Cc1ccccc1Cl)[C@@H](O)C(=O)O)c1cc(C(=O)O)n(Cc2cc(F)cc(Cl)c2)n1` [Example 2-16, 5-[(1R,2R)-2-Carboxy-1-(2-chloro-benzyl)-2-hydroxy-ethylcarbamoyl]-2-(3-chloro-5-fluoro-benzyl)-2H-pyrazole-3-carboxylic acid] was run?
**A.** 1.26 to 10 nM

**Q.** How did the Ki turn out when `COc1c(F)cc(Cn2nc(C(=O)N[C@H](Cc3ccccc3Cl)[C@@H](O)C(=O)O)cc2C(=O)O)cc1Cl` [Example 2-17, 5-[(1R,2R)-2-Carboxy-1-(2-chloro-benzyl)-2-hydroxy-ethylcarbamoyl]-2-(3-chloro-5-fluoro-4-methoxy-benzyl)-2H-pyrazole-3-carboxylic acid] was run?
**A.** 1.26 to 10 nM

**Q.** Which Ki does the source give for `CNC(=O)c1cc(C(=O)N[C@H](Cc2ccccc2C(F)(F)F)[C@@H](O)C(=O)O)n[nH]1` [Example 6-5, (2R,3R)-2-Hydroxy-3-[(5-methylcarbamoyl-1H-pyrazole-3-carbonyl)-amino]-4-(2-trifluoromethyl-phenyl)-butyric acid] here?
**A.** 12.6 to 100 nM

**Q.** With `O=C(N[C@H](Cc1ccccc1Cl)[C@@H](O)C(=O)O)c1cc(-c2ccc(Cl)cc2Cl)n[nH]1` [Example 3-8, (2R,3R)-4-(2-Chloro-phenyl)-3-{[5-(2,4-dichloro-phenyl)-2H-pyrazole-3-carbonyl]-amino}-2-hydroxy-butyric acid] as the compound, how does the Ki read?
**A.** 1.26 to 10 nM

**Q.** For `O=C(N[C@H](Cc1ccccc1Cl)[C@@H](O)C(=O)O)c1cc(C(=O)O)n(Cc2ccc(C(F)(F)F)cc2)n1` [Example 2-25, 5-[(1R,2R)-2-Carboxy-1-(2-chloro-benzyl)-2-hydroxy-ethylcarbamoyl]-2-(4-trifluoromethyl-benzyl)-2H-pyrazole-3-carboxylic acid], which Ki is on record?
**A.** 1.26 to 10 nM

**Q.** How did the Ki turn out when `COc1ccc(Cn2ccc(C(=O)N[C@H](Cc3ccccc3Cl)[C@@H](O)C(=O)O)n2)c(F)c1` [Example 2-66, (2R,3R)-4-(2-Chloro-phenyl)-3-{[1-(2-fluoro-4-methoxy-benzyl)-1H-pyrazole-3-carbonyl]-amino}-2-hydroxy-butyric acid] was run?
**A.** 1.26 to 10 nM

**Q.** `COc1ccc(Cn2nc(C(=O)N[C@H](Cc3ccccc3Cl)[C@@H](O)C(=O)O)cc2C(C)=O)cc1` [Example 2-70, (2R,3R)-3-{[5-Acetyl-1-(4-methoxy-benzyl)-1H-pyrazole-3-carbonyl]-amino}-4-(2-chloro-phenyl)-2-hydroxy-butyric acid] was tested. Which Ki did it give?
**A.** 1.26 to 10 nM

**Q.** `COc1cccc(Cn2nc(C(=O)N[C@H](Cc3ccccc3Cl)[C@@H](O)C(=O)O)cc2C(=O)O)c1` [Example 2-11, 5-[(1R,2R)-2-Carboxy-1-(2-chloro-benzyl)-2-hydroxy-ethylcarbamoyl]-2-(3-methoxy-benzyl)-2H-pyrazole-3-carboxylic acid] was tested. Which Ki did it give?
**A.** 1.26 to 10 nM
